Molecules are shown by their SMILES. Values joined by “and” are separate entries in the source; they are usually repeats but may differ in a detail not shown here. Equal entries are not always repeated. Inconclusive results and toxic doses are left out.

The assay relates to P388 leukemia ip, CD2F1 mice, survival T/C. Put plainly: NCI In Vivo Anticancer Drug Screen. Data for tumor model P388 Leukemia (intraperitoneal) in CD2F1 (CDF1) mice. Particulars: endpoint: median survival time, higher = longer survival. Summed up:
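Mice carrying the transplanted tumor received test compound or vehicle. Survival was recorded in each group, and the value is the treated-group measurement divided by that of the vehicle-treated control group.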

Where [1] appears, read: dose: 100.0 mg/kg/injection, schedule: Q04DX003 (ip), vehicle: Klucel (hydroxypropylcellulose) (HPC).
The mark [2] stands for this setting: dose: 200.0 mg/kg/injection, schedule: Q04DX003 (ip), vehicle: Klucel (hydroxypropylcellulose) (HPC).
Where [3] appears, read: dose: 400.0 mg/kg/injection, schedule: Q04DX003 (ip), vehicle: Klucel (hydroxypropylcellulose) (HPC).
Where [4] appears, read: dose: 100.0 mg/kg/injection, schedule: Q01DX009 (ip), vehicle: saline with Tween-80.
Where [5] appears, read: dose: 200.0 mg/kg/injection, schedule: Q01DX009 (ip), vehicle: saline with Tween-80.
Where [6] appears, read: dose: 50.0 mg/kg/injection, schedule: Q01DX005 (ip), vehicle: saline with Tween-80.
Where [7] appears, read: dose: 100.0 mg/kg/injection, schedule: Q01DX005 (ip), vehicle: saline with Tween-80.
Where [8] appears, read: dose: 60.0 mg/kg/injection, schedule: Q01DX005 (ip), vehicle: saline with Tween-80.
The mark [9] stands for this setting: dose: 200.0 mg/kg/injection, schedule: Q01DX005 (ip), vehicle: saline with Tween-80.

For `N#CCC(O)(/C=C/c1ccccc1)c1ccccc1` (configuration not stated), the T/C by setting is: (dose: 100.0 mg/kg/injection, schedule: Q01DX009 (ip), vehicle: saline sonified) 91 % of control; (dose: 200.0 mg/kg/injection, schedule: Q01DX009 (ip), vehicle: saline sonified) 86 % of control; (dose: 400.0 mg/kg/injection, schedule: Q01DX009 (ip), vehicle: saline sonified) 95 % of control.
For `CC1(C)NN=C(SCc2ccccc2)NC1=O`, the T/C reads like this: under setting [1], 98 % of control; under setting [2], 100 % of control; under setting [3], 92 % of control.
As to `Nc1ncnc2c1nc([Se])n2C1OC(CO)C(O)C1O` (configuration not stated), the T/C is 97 % of control (dose: 25.0 mg/kg/injection, schedule: Q01DX005 (ip), vehicle: other); 97 % of control (dose: 100.0 mg/kg/injection, schedule: Q01DX005 (ip), vehicle: other); 86 % of control (dose: 200.0 mg/kg/injection, schedule: Q01DX005 (ip), vehicle: other); 105 % of control (dose: 400.0 mg/kg/injection, schedule: Q01DX005 (ip), vehicle: other).
For the compound `O=C1[C@H]2CCC[C@H]2[C@H]2CCC[C@@H]12`, the T/C was 112 % of control (dose: 25.0 mg/kg/injection, schedule: Q01DX009 (ip), vehicle: saline with Tween-80); 119 % of control under setting [4]; 105 % of control under setting [5].
Regarding `ClCCN1c2ccccc2Sc2ccc3ccccc3c21`, the T/C by setting is: under setting [6], 89 % of control; under setting [7], 93 % of control.
Turning to `COC1=C2CC(C)CC(OC)C(O)C(C)/C=C(\C)C(OC(N)=O)C(OC)/C=C\C=C(/C)C(=O)NC(=C(C=NC(C)(C)C)C1=O)C2=O` (configuration not stated), the T/C under setting [8] was 124 % of control.
Consider `OC1(c2ccc(-c3ccc(-c4ccc(C5(O)C(c6ccccc6)=C(c6ccccc6)C(c6ccccc6)=C5c5ccccc5)cc4)cc3)cc2)C(c2ccccc2)=C(c2ccccc2)C(c2ccccc2)=C1c1ccccc1`, for which the T/C is 93 % of control under setting [1], 90 % of control under setting [2] and 93 % of control under setting [3].
As for `O=NNc1nc2ncccc2cc1-c1ccccc1Cl`, the T/C is, setting by setting: (dose: 3.12 mg/kg/injection, schedule: Q01DX009 (ip), vehicle: water) 110 % of control and 111 % of control and 124 % of control; (dose: 6.25 mg/kg/injection, schedule: Q01DX009 (ip), vehicle: water) 111 % of control; (dose: 12.5 mg/kg/injection, schedule: Q01DX009 (ip), vehicle: water) 108 % of control and 113 % of control; (dose: 25.0 mg/kg/injection, schedule: Q01DX009 (ip), vehicle: water) 94 % of control and 95 % of control.
`c1ccc(-c2nnc3c4[nH]c5ccccc5c4cnn23)cc1`: the T/C runs as follows: (dose: 100.0 mg/kg/injection, schedule: Q01DX001 (ip), vehicle: Klucel (hydroxypropylcellulose) (HPC)) 105 % of control; (dose: 200.0 mg/kg/injection, schedule: Q01DX001 (ip), vehicle: Klucel (hydroxypropylcellulose) (HPC)) 105 % of control; (dose: 400.0 mg/kg/injection, schedule: Q01DX001 (ip), vehicle: Klucel (hydroxypropylcellulose) (HPC)) 99 % of control.
Turning to `O=C1N(Cc2ccccc2)[C@H]2CS(=O)(=O)C[C@@H]2N1Cc1ccccc1`, the T/C under setting [6] is 87 % of control, the T/C under setting [7] was 92 % of control and the T/C under setting [9] is 86 % of control.
Turning to `CSc1cccc(NC(=O)Oc2ccc([N+](=O)[O-])cc2Cl)c1`, the T/C reads like this: (dose: 6.25 mg/kg/injection, schedule: Q01DX009 (ip), vehicle: DMSO) 100 % of control; (dose: 12.5 mg/kg/injection, schedule: Q01DX009 (ip), vehicle: DMSO) 93 % of control.
`COc1ccc(C[n+]2ccc3c([N+](=O)[O-])cccc3c2)cc1`: the T/C was 111 % of control (dose: 7.5 mg/kg/injection, schedule: Q01DX005 (ip), vehicle: saline + Tween-80 + alcohol); 116 % of control (dose: 15.0 mg/kg/injection, schedule: Q01DX005 (ip), vehicle: saline + Tween-80 + alcohol); 116 % of control (dose: 30.0 mg/kg/injection, schedule: Q01DX005 (ip), vehicle: saline + Tween-80 + alcohol).
For `CC1CCC(C)(C(O)c2ccc(C(O)C3(C)CCC(C)C3(C)C)cc2)C1(C)C` (configuration not stated), the T/C is 86 % of control (dose: 50.0 mg/kg/injection, schedule: Q01DX009 (ip), vehicle: saline); 92 % of control (dose: 50.0 mg/kg/injection, schedule: Q01DX009 (ip), vehicle: suspension in saline); 91 % of control (dose: 100.0 mg/kg/injection, schedule: Q01DX009 (ip), vehicle: suspension in saline); 89 % of control (dose: 200.0 mg/kg/injection, schedule: Q01DX009 (ip), vehicle: saline).
`C=C(C1=CC(=O)C(C)=C(OC(=O)C2(C)OC2C)C1=O)C(CC=C(C)C)OC(=O)/C(C)=C/C` (configuration not stated): the T/C runs as follows: (dose: 1.56 mg/kg/injection, schedule: Q01DX005 (ip), vehicle: Klucel (hydroxypropylcellulose) (HPC)) 97 % of control; (dose: 3.12 mg/kg/injection, schedule: Q01DX005 (ip), vehicle: Klucel (hydroxypropylcellulose) (HPC)) 97 % of control; (dose: 6.25 mg/kg/injection, schedule: Q01DX005 (ip), vehicle: Klucel (hydroxypropylcellulose) (HPC)) 99 % of control; (dose: 12.5 mg/kg/injection, schedule: Q01DX005 (ip), vehicle: Klucel (hydroxypropylcellulose) (HPC)) 99 % of control; (dose: 25.0 mg/kg/injection, schedule: Q01DX005 (ip), vehicle: Klucel (hydroxypropylcellulose) (HPC)) 99 % of control.
Consider `COC(=O)/C=C\C(=O)O`, for which the T/C (dose: 50.0 mg/kg/injection, schedule: Q04DX003 (ip), vehicle: saline) is 100 % of control; the T/C (dose: 100.0 mg/kg/injection, schedule: Q04DX003 (ip), vehicle: saline) was 110 % of control; the T/C (dose: 200.0 mg/kg/injection, schedule: Q04DX003 (ip), vehicle: saline) is 120 % of control.
In the case of `O=C(/C=C/c1ccc(Cl)c(Cl)c1)c1ccccc1`, the T/C under setting [5] is 100 % of control.
Regarding `O=C(Nc1ccc(C(=O)Nc2cc(S(=O)(=O)O)cc3cc(S(=O)(=O)O)cc(O)c23)cc1)c1ccccc1`, the T/C under setting [4] is 98 % of control; the T/C under setting [5] is 106 % of control; the T/C (dose: 400.0 mg/kg/injection, schedule: Q01DX009 (ip), vehicle: saline with Tween-80) is 103 % of control.
Take `CC(C)C[CH2][Ge]([CH2]CC(C)C)([CH2]CC(C)C)[CH2]CC(C)C`: the T/C by setting is: (dose: 100.0 mg/kg/injection, schedule: Q01DX001 (ip), vehicle: saline with Tween-80) 100 % of control; (dose: 200.0 mg/kg/injection, schedule: Q01DX001 (ip), vehicle: saline with Tween-80) 94 % of control; (dose: 400.0 mg/kg/injection, schedule: Q01DX001 (ip), vehicle: saline with Tween-80) 96 % of control.
On to `CCC(c1ccc(OCC(=O)N/N=C2/CCC3C4CCc5cc(O)ccc5C4CCC23C)cc1)C(CC)c1ccc(OCC(=O)N/N=C2\CCC3C4CCc5cc(O)ccc5C4CCC23C)cc1` (configuration not stated), for which the T/C is 98 % of control (dose: 25.0 mg/kg/injection, schedule: Q01DX001 (ip), vehicle: Klucel (hydroxypropylcellulose) (HPC)) and 90 % of control (dose: 50.0 mg/kg/injection, schedule: Q01DX001 (ip), vehicle: Klucel (hydroxypropylcellulose) (HPC)).
As for `CCOC(=O)CN1C(=S)N(c2ccc(C)cc2)C(=Nc2ccc(C)cc2)C1=Nc1ccc(C)cc1`, the T/C reads like this: (dose: 50.0 mg/kg/injection, schedule: Q01DX005 (ip), vehicle: Klucel + Tween-80) 96 % of control; (dose: 100.0 mg/kg/injection, schedule: Q01DX005 (ip), vehicle: Klucel + Tween-80) 91 % of control; (dose: 200.0 mg/kg/injection, schedule: Q01DX005 (ip), vehicle: Klucel + Tween-80) 90 % of control.
As for `CC(C)(C)OC(=O)C1CCON1C1OC(C(O)CO)C2OC(C)(C)OC21` (configuration not stated), the T/C by setting is: (dose: 50.0 mg/kg/injection, schedule: Q01DX005 (ip), vehicle: Klucel (hydroxypropylcellulose) (HPC)) 100 % of control; (dose: 100.0 mg/kg/injection, schedule: Q01DX005 (ip), vehicle: Klucel (hydroxypropylcellulose) (HPC)) 100 % of control and 98 % of control; (dose: 200.0 mg/kg/injection, schedule: Q01DX005 (ip), vehicle: Klucel (hydroxypropylcellulose) (HPC)) 95 % of control and 104 % of control.
For the compound `CC(C)(C)C1=NN=C(C(C)(C)C)CSC1`, the T/C reads like this: under setting [8], 108 % of control; (dose: 120.0 mg/kg/injection, schedule: Q01DX005 (ip), vehicle: saline with Tween-80) 103 % of control; (dose: 240.0 mg/kg/injection, schedule: Q01DX005 (ip), vehicle: saline with Tween-80) 104 % of control.
As for `CCCCn1c2c(c3ccccc3c1=O)C(=O)c1ccccc1-2`, the T/C is 92 % of control under setting [6], 91 % of control under setting [7] and 88 % of control under setting [9].

For the origin of these results see PubChem BioAssay AID330 (DTP/NCI, 2004).
